In US12472193B2, “Methods and compositions for treating and preventing respiratory related diseases and conditions with xylitol-headgroup lipid analogs” (National Jewish Health, priority 2017, dated 2025):
“Also recorded” adds a separate entry of the source. Read-outs that look alike come from different tables or passages of the source.

Key:
[1] = Procedure: 18:1 DEPX was prepared as liposomes so that 500 μg of lipid was delivered in a 50 μL volume. 6-week old female BALB/C mice were purchased from Jackson laboratories and divided into groups of 5. Each group was inoculated with 500 μg of 18:1 DEPX by intranasal inoculation. Groups of 5 mice were sacrificed and lavaged at the following time points: 0 hours, 3 hours, 6 hours, 18 hours and 24 hours. Lipids were extracted from mice BALF by Bligh-Dyer (“A rapid method of total lipid extraction and purification.,” Can. J. Biochem. Physiol., vol. 37, no. 8, pp. 911-7, August 1959), and quantified by phosphorus analysis. 150 nmol of lipid extracted from each mouse was separated by lipid class utilizing the Touchstone solvent system (refer to methods) and thin layer chromatography. 0.1% ANSA and UV light was used to visualize lipids from the thin layer chromatogram. Individual xylitol lipid bands were cut out from the silica and quantified by phosphorus analysis.
To determine how quickly 18:1 DEPX turns over in the mouse lung, female BALB/C mice that were 6-8 weeks old were inoculated with 500 μg of lipid by intranasal delivery in a 50 μL volume. Mice were sacrificed at time periods of, 0 hours, 3 hours, 6 hours, 18 hours and 24 hours following lipid delivery and bronchoalveolar lavage fluid (BALF) was collected. Lipids were extracted from BALF by the Bligh-Dyer method and total lipid extracts were quantified by phosphorus analysis (G. Rouser, et al., “Quantitative analysis of phospholipids by thin-layer chromatography and phosphorus analysis of spots.,” Lipids, vol. 1, no. 1, pp. 85-6, January 1966). To separate the various lipid classes present in BALF, thin layer chromatography on a Merck Silica 60 glass plate with a touchstone solvent system was utilized. The silica plate was scored in lanes according to number of samples, 150 nmol of total lipid was spotted onto each lane and solvent was developed for 90 minutes. The plate was air dried and sprayed with 0.1% ANSA-water then exposed to UV light to reveal migration of lipids on the plate. The spots corresponding to xylitol lipids were cut out and quantified by phosphorous analysis.
Because toxicity of the synthetic phospholipid, 18:1 DEPX, is unknown lower levels of lipid were delivered to mice to determine if the diether lipid persists in the mouse lung after 24 hours. The previous experiment was repeated with 250 μg, 150 μg and 75 μg 18:1 DEPX delivered to mice. 250 μg was used as a starting point for mice sacrificed at 0 hours following lipid delivery. Subsequently groups of mice given 250 μg, 150 μg and 75 μg of 18:1 DEPX were sacrificed 24 hours following intranasal delivery of lipid. Mouse lungs were lavaged 2 times with 1 mL PBS. Total lipids were extracted by the Bligh-Dyer method from BALF and separated on a Merck Silica 60 glass plate using a touchstone solvent system for separation of lipids by headgroup. Xylitol lipid spots were excised from the silica and quantified by phosphorus assay.

RSV = experiment: 18:1 DEPX interference with RSV infection in vivo (BALB/c mice); design: species or system mouse
Procedure: Six-week-old female BALB/c mice were obtained from Jackson Laboratory. Mice were anesthetized with isoflurane and through intranasal inoculation a 50 μL volume of PBS control, 18:1 DEPX lipid alone, 18:1 DEPX+RSV or RSV only was delivered to mice. Mice were infected with 1×10^7 pfu/mL RSV. 18:1 DEPX liposomes were delivered to mice at a final amount of 100 μg. For lipid antagonism, RSV and 18:1 DEPX were mixed together in PBS prior to inoculation. Five days following initial infection, mice were euthanized by asphyxiation with carbon dioxide following prescribed guidelines by the IACUC. Next, mice were dissected to expose the trachea where a small cut was made to insert a luer stub. The lungs were then lavaged with 1 mL of saline. The chest cavity was opened and the lungs perfused with PBS and then removed. The left lung was homogenized in 1 mL of serum-free DMEM, the homogenates were centrifuged at 3800 rcf for 15 minutes at 4° C. and supernatant was used for quantitative plaque assay analysis. Lower right lungs were fixed overnight in 10% buffered formalin, then dehydrated and paraffin-embedded. Lungs were then sliced and stained with Hematoxylin-Eosin (H&E) for microscopy pictures and histopathological scoring. Total cell counts were determined from BALF and cell types were assessed by cytospin. IFN-γ was quantified by ELISA from the cell-free supernatants of BALF. The upper right lung was homogenized, RNA was extracted, converted to cDNA and RSV replication was determined by quantitative PCR of the F protein.
Female BALB/C mice were obtained from Jackson Laboratories at 6 weeks of age. The experiment consisted of four groups, a PBS control, 18:1 DEPX liposomes alone, 18:1 DEPX liposomes+RSV and RSV alone. Mice were inoculated with RSV at 1×10^7 pfu/mL. 100 μg 18:1 DEPX was the dose tested for protective effects in the mouse lung. Each mouse group underwent intranasal inoculation for delivery of experimental conditions in a final volume of 50 μL. Mice were monitored daily and body weight was recorded. At the height of RSV infection on day 5, the mice were euthanized. Bronchoalveolar lavage fluid (BALF) was collected, the chest cavity was opened and the lungs removed. The left lobe of the lungs was homogenized in serum-free DMEM, centrifuged at 3800 rcf for 15 minutes at 0° C. and the supernatant collected for quantitative plaque assay described in the previous chapter. The lower right lobe of the lung was fixed overnight in 10% buffered formalin and then processed by paraffin embedding, slicing and fixing of the lung to a microscope slide and H&E staining. The upper right lobe of the lung was homogenized, RNA was extracted and converted to cDNA and then quantitative real-time PCR was used to determine RSV replication by quantification of the F protein. Cells within BALF were quantified and assessed for cell populations by cytospin. BALF supernatant was stored and subsequently used for IFNγ quantification.
On day 5 following RSV infection mice were sacrificed by carbon dioxide asphyxiation according to IACUC protocol. Mice were dissected to expose the trachea where a small cut was made for the insertion of a leur stub and the lungs were lavaged with 1 mL of saline. A 20 μL aliquot was obtained from BALF collected and cellular infiltration into the lungs was quantified using a hemocytometer. The remaining lavage fluid was centrifuged at 500×g for 5 minutes, supernatant was collected and cells were resuspended in PBS for cytospin. In studies shown in FIG. 11, mice were challenged with either saline (CNTL), or 10^7 virus (RSV), or virus plus 18:1 DEPX (18:1 DEPX+RSV), or lipid alone (18;1 DEPX). The mice received all agents in a volume of 50 μl applied intranasally. On day 6 the mice were euthanized and the lungs were lavaged with saline. The cells in the lavage were recovered by centrifugation and quantified by counting using a hemocytometer. In RSV infected mice cell numbers were ˜120×10^4. […]

[2] = 18:1 DEPX alone, 100 μg intranasal

In the case of CCCCCCCCC=CCCCCCCCCOCC(COP(=O)(O)OCC(O)C(O)C(O)CO)OCCCCCCCCC=CCCCCCCCC (mixture of isomers) [18:1 DEPX, sn-1-O-octadecenyl, sn-2-O-octadecenyl sn-3 glycerol phosphoxylitol], the “xylitol lipid recovered from BALF” value ([1]; 75 μg intranasal, 24 hours) is reported as 10 µg, the “xylitol lipid recovered from BALF” value ([1]; 150 μg intranasal, 24 hours) is reported as 15 µg and the “xylitol lipid recovered from BALF” value ([1]; 250 μg intranasal, 0 hours) is reported as “Around 40 μg”. The “xylitol lipid recovered from BALF” value ([1]; 250 μg intranasal, 24 hours) was “around 20 μg”, the “18:1 DEPX detected in recovered lavage” value ([1]; 500 μg intranasal, 24 hours) was “about 20 nmol” and the “18:1 DEPX in 150 nmol of total BALF lipid loaded” value ([1]; 500 μg intranasal, time zero) was “approximately 42 nmol”. For the same compound, the “half-life in the mouse lung” value ([1]; intranasal) was “around 24 hours”, the “starting material recovered after 24 hours” value ([1]; mice) was 50% and the “daily body weight, lipid alone vs control mice” value (RSV; [2]) was “no difference in daily body weight”. For the same compound, the “number of cells in lavage, lipid alone vs control” value (RSV; [2]) was “no difference in number of cells”, the “IFNγ in BALF compared to RSV alone” value (RSV; 18:1 DEPX+RSV mice) was “reduced; also recorded: significantly lower” and the “cell numbers in lavage” value (RSV; 18:1 DEPX+RSV mice, 1 mL BALF, FIG. 11) was ~20×10^4. For the same compound, the “IFNγ in BALF” value (RSV; 18:1 DEPX+RSV mice, day 5) was “Around 1 ng/mL”, the “cellular infiltration into the lungs (BALF)” value (RSV; 18:1 DEPX+RSV vs RSV alone) was “suppresses an overabundance of cellular infiltration; also recorded: decreased number of inflammatory cellular infiltrates; also recorded: suppresses influx of inflammatory cells; also recorded: reduced cellular infiltrates; also recorded: significantly lower amounts of cellular infiltrates” and the “reduction of viral plaque number” value (RSV; 18:1 DEPX+RSV vs RSV alone) was 50%. The lung histopathology (RSV; 18:1 DEPX+RSV vs RSV alone, H&E) was “appeared less affected by the virus”, the “reduction in RSV expression (qPCR)” value (RSV; first viral challenge experiment) was 2.6 fold and the “reduction of RSV expression by a factor of (qPCR)” value (RSV; latter two experiments) was 6.2. For the same compound, the “viral load / RSV infection in lung compared to RSV mice” value (RSV; plaque assay and qPCR) was “reduces viral copy number; also recorded: inhibited RSV infection; also recorded: reduced viral load”.
